Structures can show the parent of a compound that is named as a salt.
System: jejunum
Assay: Transcriptional profiling on Affymetrix GeneChips, single dose, naïve mice: jejunum
Format: in vivo, C57BL/6 mice
Conditions: for Number of differentially expressed genes identified: Jenjunum: Naïve, Single Dose, 100 mpk, vs Vehicle
Protocol: Treated mice were sacrificed at 2, 7, or 12 hours. Tissues (liver, spleen, kidney, jejunum, cortex, hippocampus, striatum and whole blood) were collected and analyzed by transcriptional profiling on mouse Affymetrix GeneChips.
Tissues (liver, spleen, kidney, jejunum, cortex, hippocampus, striatum and whole blood) were collected and analyzed by transcriptional profiling on mouse Affymetrix GeneChips.
Animals were exposed to CO2 and whole blood collected via cardiac puncture. Two 100 μl aliquots of whole blood were collected in 1.5 mL microcentrifuge tubes and snap frozen in liquid nitrogen. Peripheral (liver, spleen, kidney and jejunum) and CNS brain (cerebellum, hippocampus, striatum and cortex) tissues were harvested and snap frozen in liquid nitrogen, with special care taken to collect tissues of similar size and from the same location. All samples were stored at −80° C. until RNA extraction was conducted.
For RNA preparation, frozen tissues were placed in 2 mL RNAse-free 96-well blocks with 1.5 mL QIAzol Lysis Reagent (QIAgen) and a 3.2 mm stainless steel bead (BioSpec Products, Bartlesville, Okla.). Tissues were disrupted for four cycles of 45 seconds in a Mini-Beadbeater (Biospec Products). RNA was extracted in chloroform and the aqueous phase was mixed with an equal volume of 70% ethanol. Extracted RNA was applied to RNeasy 96 plates and purified by the spin method according to the manufacturer's protocol (RNeasy 96 Universal Tissue Protocol, QIAgen, Hilden Germany).
Automated sample amplifications and biotin labelings were carried out using the NuGEN Ovation RNA Amplification system V2 (Cat #3100), Ovation WB reagent (Cat #1300) and Encore Biotin module (Cat #4200) (NuGEN Technologies, Inc, San Carlos, Calif.) according to manufacturer's recommendations using an Arrayplex automated liquid handler (Beckman Coulter, Indianapolis, Ind.). Two micrograms of biotin labeled sscDNA probe were hybridized to Affymetrix GeneChip Affymetrix HT_MG-430_PM plate arrays with modified conditions as described in Allaire et al. Washing and staining of the hybridized arrays were completed as described in the GeneChip Expression analysis technical manual for HT plate arrays using the Genechip® Array Station (Affymetrix, Santa Clara, Calif.) with modifications as described in Allaire et al. The processed GeneChip® plate arrays were scanned using GeneTitan scanner (Affymetrix, Santa Clara, Calif.).
Affymetrix scans were subject to quality control (QC) measures. These tests included a visual inspection of the distribution of raw signal intensities and an assessment of RNA degradation, relative log expression (RLE), and normalized unsealed standard error (NUSE). All sample scans that passed these QC metrics were included in the analysis.
All CEL files were subjected to GC-content-based Robust Multi-array Average (GCRMA) normalization (version 2.20.0) (Irizarry R A, et al. Nucleic Acids Res 2003; 31:e15; Li C, et al. Genome Biol 2001; 2:[…]0032). Expression levels were log (base 2) transformed.
All calculations and analyses were carried out using R (version 2.11.1) and Bioconductor computational tools (Gentleman R. Springer Science+Business Media 2005).

[1] = jejunum, 2 hr after single 100 mg/kg oral dose
[2] = jejunum, 7 hr after single 100 mg/kg oral dose
[3] = jejunum, 12 hr after single 100 mg/kg oral dose

COC(=O)/C=C/C(=O)O [MMF, monomethyl fumarate]
Gstm7 (1419072_PM_at) differential expression (Jejunum, 7 hr): 1.97 | Htatip2 (1451814_PM_a_at) differential expression (Jejunum, 7 hr): 1.68 | Ifit1 (1450783_PM_at) differential expression (Jejunum, 7 hr): −1.95 | Matn2 (1419442_PM_at) differential expression (Jejunum, 7 hr): 1.59 | Me1 (1416632_PM_at) differential expression (Jejunum, 7 hr): 2.01 | Nqo1 (1423627_PM_at) differential expression (Jejunum, 7 hr): 2.63 | Pgd (1423706_PM_a_at) differential expression (Jejunum, 7 hr): 1.55 | Pgm2 (1437240_PM_at) differential expression (Jejunum, 7 hr): 1.54 | Pir (1429001_PM_at) differential expression (Jejunum, 7 hr): 5.12 | Prss8 (1418320_PM_at) differential expression (Jejunum, 7 hr): 1.75 | Rsad2 (1436058_PM_at) differential expression (Jejunum, 7 hr): −1.81 | Rtp4 (1418580_PM_at) differential expression (Jejunum, 7 hr): −1.61 | Setd4 (1435405_PM_at) differential expression (Jejunum, 7 hr): 2.27 | Slc5a4b (1422757_PM_at) differential expression (Jejunum, 7 hr): 1.79 | Slc35e3 (1428805_PM_at) differential expression (Jejunum, 7 hr): 1.67 | Txnrd1 (1424487_PM_x_at) differential expression (Jejunum, 7 hr): 2.07 | Ugt2b5 (1419622_PM_at) differential expression (Jejunum, 7 hr): 4.50 | Ugt2b36 (1455595_PM_at) differential expression (Jejunum, 7 hr): 2.50 | Abcc3 (1428988_PM_at) differential expression (Jejunum, 12 hr): 2.10 | Acsm5 (1437662_PM_at) differential expression (Jejunum, 12 hr): 1.95 | Akr1c12 (1422000_PM_at) differential expression (Jejunum, 12 hr): 1.52 | Akr1c12 /// Akr1c13 (1450455_PM_s_at) differential expression (Jejunum, 12 hr): 1.76 | Akr1c13 (1418672_PM_at) differential expression (Jejunum, 12 hr): 2.01 | Aldh1a7 (1418601_PM_at) differential expression (Jejunum, 12 hr): 1.74 | Apob (1457554_PM_at) differential expression (Jejunum, 12 hr): −1.54 | Blvrb (1451386_PM_at) differential expression (Jejunum, 12 hr): 1.54 | Ces1e (1419510_PM_at) differential expression (Jejunum, 12 hr): 2.77 | Dio1 (1417991_PM_at) differential expression (Jejunum, 12 hr): −1.51 | Ephx1 (1422438_PM_at) differential expression (Jejunum, 12 hr): 2.17 | Fst (1434458_PM_at) differential expression (Jejunum, 12 hr): 1.94 | G6pd2 /// G6pdx (1422327_PM_s_at) differential expression (Jejunum, 12 hr): 1.83 | Gm3776 /// Gsta1 /// Gsta2 (1421041_PM_s_at) differential expression (Jejunum, 12 hr): 2.09 | Gpx2 (1449279_PM_at) differential expression (Jejunum, 12 hr): 1.54 | Gsr (1421816_PM_at) differential expression (Jejunum, 12 hr): 2.67 | Gss (1441931_PM_x_at) differential expression (Jejunum, 12 hr): 1.55 | Gsta3 (1423436_PM_at) differential expression (Jejunum, 12 hr): 10.80 | Gsta4 (1416368_PM_at) differential expression (Jejunum, 12 hr): 2.66 | Gstm1 (1416416_PM_x_at) differential expression (Jejunum, 12 hr): 3.70 | Gstm2 (1416411_PM_at) differential expression (Jejunum, 12 hr): 2.20 | Gstm4 (1424835_PM_at) differential expression (Jejunum, 12 hr): 5.43 | Gstm6 (1422072_PM_a_at) differential expression (Jejunum, 12 hr): 2.19 | Kif1b (1451642_PM_at) differential expression (Jejunum, 12 hr): −1.51 | Nqo1 (1423627_PM_at) differential expression (Jejunum, 12 hr): 2.34 | Pir (1429001_PM_at) differential expression (Jejunum, 12 hr): 4.19 | Setd4 (1435405_PM_at) differential expression (Jejunum, 12 hr): 1.60 | Slc5a4b (1422757_PM_at) differential expression (Jejunum, 12 hr): 2.16 | Ugt2b5 (1419622_PM_at) differential expression (Jejunum, 12 hr): 5.00 | Ugt2b36 (1455595_PM_at) differential expression (Jejunum, 12 hr): 3.03 | Number of differentially expressed genes identified: Jenjunum (2 h after last dosing): 67 | Number of differentially expressed genes identified: Jenjunum (7 h after last dosing): 74 | Number of differentially expressed genes identified: Jenjunum (12 h after last dosing): 45 | 6-Sep (septin 6) mRNA fold change vs vehicle [1]: 1.56 | Bmp2 mRNA fold change vs vehicle [1]: −1.55 | Figf mRNA fold change vs vehicle [1]: 1.63 | Gabarapl1 mRNA fold change vs vehicle [1]: 1.52 | Hfe mRNA fold change vs vehicle [1]: 1.73 | Hmox1 mRNA fold change vs vehicle [1]: 1.81 | Lpin2 mRNA fold change vs vehicle [1]: 1.61 | Lrp8 mRNA fold change vs vehicle [1]: 2.23 | Prr5l mRNA fold change vs vehicle [1]: −1.64 | Slc2a1 mRNA fold change vs vehicle [1]: 1.68 | Slc48a1 mRNA fold change vs vehicle [1]: 1.62 | Slfn2 mRNA fold change vs vehicle [1]: −1.82 | Sos1 mRNA fold change vs vehicle [1]: −1.57 | St3gal6 mRNA fold change vs vehicle [1]: 1.52 | Tkt mRNA fold change vs vehicle [1]: 1.73 | Tnfaip3 mRNA fold change vs vehicle [1]: −1.67 | Abcc2 mRNA fold change vs vehicle [2]: 1.51 | Asns mRNA fold change vs vehicle [2]: 1.60 | Capn13 mRNA fold change vs vehicle [2]: −1.75 | Enkur mRNA fold change vs vehicle [2]: −1.56 | Fam162a mRNA fold change vs vehicle [2]: 1.67 | Gm14446 mRNA fold change vs vehicle [2]: −1.65 | Gstm7 mRNA fold change vs vehicle [2]: 1.97 | Ifit1 mRNA fold change vs vehicle [2]: −1.95 | Matn2 mRNA fold change vs vehicle [2]: 1.59 | Me1 mRNA fold change vs vehicle [2]: 2.01 | Pgd mRNA fold change vs vehicle [2]: 1.55 | Rsad2 mRNA fold change vs vehicle [2]: −1.81 | Rtp4 mRNA fold change vs vehicle [2]: −1.61 | Akr1c12 mRNA fold change vs vehicle [3]: 1.52 | Apob mRNA fold change vs vehicle [3]: −1.54 | Dio1 mRNA fold change vs vehicle [3]: −1.51 | Ephx1 mRNA fold change vs vehicle [3]: 2.17 | Fst mRNA fold change vs vehicle [3]: 1.94 | Kif1b mRNA fold change vs vehicle [3]: −1.51
